The results in this text go back to the supplement of paper PMC11061612.

Common to all, as to assay: combination Emax (second highest fraction inhibited in the dose matrix, 72 h); higher = more inhibition; extreme values may be limits of the assay
Test [1] concerns COLO-684 (Endometrial Carcinoma). Summed up:
(§1)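 Cell lines grown in DMEM/F12 or RPMI with 10% FBS were plated in 1536-well plates and held 24 hours at 37°C, 5% CO2 before 72 hours of exposure to two-drug dose matrices, with DMSO typically at 0.2%. CellTiter-Glo 2.0 luminescence gave viability, which was converted to inhibition. Vehicle wells were set to 0 and blank wells to 1. Combination Emax is the second-highest inhibition in the matrix, and Bliss excess is the observed combination effect minus the expected EA + EB − EA·EB, where EA and EB are the single-agent effects.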

Another test relates to HuO-3N1 (Osteosarcoma). The essentials:
as §1

In the next test the test system is KYM-1 (Rhabdomyosarcoma). The essentials:
as §1

Test [2] deals with CML-T1 (Chronic Myelogenous Leukemia). The essentials: as §1
Test [3] has as its system PC-14 (Lung Adenocarcinoma). The essentials:
as §1

The test system of test [4] is OV-90 (Ovarian Carcinoma). The essentials: as §1
Test [5] has as its system OCI-AML5 (Acute Myeloid Leukemia). The essentials:
as §1

A further test has as its system RT4 (Bladder Carcinoma). The essentials:
as §1

Test [6] deals with FLO-1 (Esophageal Adenocarcinoma). The essentials:
as §1

The test system of test [7] is SW684 (Other Solid Carcinomas). Summed up: as §1
Test [8] deals with NCI-H1623 (Lung Adenocarcinoma). Summed up: as §1
The subject of test [9] is AsPC-1 (Pancreatic Carcinoma). Summed up:
as §1

Test [10] deals with NCI-H1755 (Lung Adenocarcinoma). The essentials: as §1
The next test concerns CHL-1 (Melanoma). Summed up:
as §1

Test [11] has as its system SK-MM-2 (Plasma Cell Myeloma). The essentials:
as §1

The next test concerns ES-2 (Ovarian Carcinoma). The essentials: as §1
Test [12] relates to NCI-H1155 (Non-Small Cell Lung Carcinoma). Summed up:
as §1

For test [13], the system named is HSC-3 (Oral Cavity Carcinoma). The essentials: as §1
For test [14], the system named is OVTOKO (Ovarian Carcinoma). The essentials: as §1
The test system of test [15] is NCI-H196 (Small Cell Lung Carcinoma). Summed up: as §1

With `Cc1cc2ncnn2cc1Nc1ncc2c(n1)n(C1CCOCC1)c(=O)n2C` [AZD7648] + CCN(CCO)CCCOc1ccc2c(Nc3cc(CC(=O)Nc4cccc(F)c4)[nH]n3)ncnc2c1 [AZD2811] (first compound max 10 µM, 7x7, partner max 1 µM), the “combination Emax” value in test [1] turned out to be 0.302; in the test on HuO-3N1 (Osteosarcoma), 0.35; in the test with KYM-1 (Rhabdomyosarcoma) it was 0.182; in [2], 0.49; in [3], 0.312; in test [4], 0.323. In addition, the “combination Emax” value in test [5] was 0.969; in the test on RT4 (Bladder Carcinoma), 0.491; in [6] it was 0.406; in test [7], 0.352; in test [8], 0.28; in test [9], 0.267. In addition, the “combination Emax” value in test [10] came to 0.599; in the test with CHL-1 (Melanoma) it was 0.308; in [11] it was 0.313; with ES-2 (Ovarian Carcinoma), 0.288; in test [12], 0.475; in test [13], 0.455. Further, the entries for the “combination Emax” value in test [14] and in [15] were 0.232 and 0.185, respectively.

As to `C=CCn1c(=O)c2cnc(Nc3ccc(N4CCN(C)CC4)cc3)nc2n1-c1cccc(C(C)(C)O)n1` [AZD1775] + C[C@@H]1COCCN1C2=NC(=NC(=C2)C3(CC3)[S@](=N)(=O)C)C4=C5C=CNC5=NC=C4 [AZD6738] (first compound max 1 µM, partner max 10 µM), the “combination Emax” value in test [1] came to 0.851; with HuO-3N1 (Osteosarcoma), 0.5; with KYM-1 (Rhabdomyosarcoma), 0.837; in test [2], 0.971; in test [3], 0.918; in test [4], 0.526. In addition, the “combination Emax” value in test [5] amounted to 0.981; in the test with RT4 (Bladder Carcinoma), 0.623; in test [6] it was 0.924; in [7], 0.474; in test [8] it was 0.74; in test [9], 0.475. Also, the “combination Emax” value was found to be 0.899 in test [10]; 0.84 with CHL-1 (Melanoma); 0.705 in test [11]; 0.841 in the test on ES-2 (Ovarian Carcinoma); 0.864 in [12]; 0.63 in test [13]. Besides, the results for the “combination Emax” value in test [14] and in [15] were 0.56 and 0.53, respectively.

Take `Cn1cnc2c(F)c(Nc3ccc(Br)cc3Cl)c(C(=O)NOCCO)cc21` [Selumetinib] + CC(C)n1c(=O)n(C)c2cnc3cc(F)c(-c4ccc(OCCCN5CCCCC5)nc4)cc3c21 [AZD1390] (first compound max 10 µM, 7x7, partner max 0.3 µM): the “combination Emax” value worked out at 0.125 in [1]; 0.129 with HuO-3N1 (Osteosarcoma); 0.141 in the test on KYM-1 (Rhabdomyosarcoma); 0.628 in test [2]; 0.326 in test [3]; 0.598 in [4]. Moreover, the “combination Emax” value in [5] is 0.9; in the test with RT4 (Bladder Carcinoma), 0.257; in test [6], 0.424; in [7], 0.152; in test [8], 0.276; in test [9], 0.357. Moreover, the “combination Emax” value worked out at 0.235 in test [10]; 0.0273 with CHL-1 (Melanoma); 0.174 in test [11]; 0.377 with ES-2 (Ovarian Carcinoma); 0.23 in test [12]; 0.346 in test [13]. In addition, the “combination Emax” value in test [14] was 0.185; in test [15] it was 0.0904.

Consider `CN(C)CCCOc1ccc(-c2ccc3ncc4c(c3c2)n(C2CCOCC2)c(=O)n4C)cn1` [AZD0156] + C[C@@H]1COCCN1C2=NC(=NC(=C2)C3(CC3)[S@](=N)(=O)C)C4=C5C=CNC5=NC=C4 [AZD6738] (first compound max 1 µM, 7x7, partner max 10 µM), for which the “combination Emax” value was 0.812 in test [1]; 0.299 in the test on HuO-3N1 (Osteosarcoma); 0.786 in the test on KYM-1 (Rhabdomyosarcoma); 0.927 in [2]; 0.828 in test [3]; 0.437 in [4]. The “combination Emax” value in [5] was 0.917; in the test with RT4 (Bladder Carcinoma) it was 0.411; in [6], 0.691; in [7], 0.301; in test [8], 0.675; in test [9], 0.454. The “combination Emax” value stood at 0.816 in test [10]; 0.798 in the test with CHL-1 (Melanoma); 0.625 in test [11]; 0.808 in the test on ES-2 (Ovarian Carcinoma); 0.748 in test [12]; 0.487 in [13]. In addition, the figures for the “combination Emax” value in test [14] and in test [15] were 0.471 and 0.292, respectively.

Regarding `CC1(C)CCC(CN2CCN(c3ccc(C(=O)NS(=O)(=O)c4ccc(NCC5CCOCC5)c([N+](=O)[O-])c4)c(Oc4cnc5[nH]ccc5c4)c3)CC2)=C(c2ccc(Cl)cc2)C1` [Venetoclax] + C[C@@H](Nc1cc(F)cc(F)c1)c1cc(C(=O)N(C)C)cc2c(=O)cc(N3CCOCC3)oc12 [AZD8186] (first compound max 1 µM, 7x7, partner max 3 µM), the “combination Emax” value in test [1] turned out to be 0.529; with HuO-3N1 (Osteosarcoma), 0.269; with KYM-1 (Rhabdomyosarcoma) it was 0.162; in test [2] it was 0.967; in test [3] it was 0.175; in test [4], 0.164. Also, the “combination Emax” value stood at 1 in test [5]; 0.174 with RT4 (Bladder Carcinoma); 0.543 in [6]; 0.315 in test [7]; 0.378 in test [8]; 0.104 in [9]. For the same compound, the “combination Emax” value in [10] is 0.588; in the test on CHL-1 (Melanoma), 0.147; in [11] it was 1; in the test with ES-2 (Ovarian Carcinoma), 0.159; in test [12] it was 0.422; in [13], 0.0933. Moreover, the results for the “combination Emax” value in [14] and in test [15] were 0.521 and 0.218, respectively.

As for `CCN(CCO)CCCOc1ccc2c(Nc3cc(CC(=O)Nc4cccc(F)c4)[nH]n3)ncnc2c1` [AZD2811] + C=CCn1c(=O)c2cnc(Nc3ccc(N4CCN(C)CC4)cc3)nc2n1-c1cccc(C(C)(C)O)n1 [AZD1775] (first compound max 1 µM, partner max 1 µM), the “combination Emax” value came to 0.649 in test [1]; 0.233 in the test on HuO-3N1 (Osteosarcoma); 0.401 with KYM-1 (Rhabdomyosarcoma); 0.915 in [2]; 0.842 in test [3]; 0.654 in test [4]. For the same compound, the “combination Emax” value is 0.978 in [5]; 0.408 in the test with RT4 (Bladder Carcinoma); 0.769 in [6]; 0.165 in test [7]; 0.297 in [8]; 0.293 in test [9]. Moreover, the “combination Emax” value in test [10] was determined as 0.76; with CHL-1 (Melanoma), 0.658; in test [11], 0.644; in the test on ES-2 (Ovarian Carcinoma), 0.627; in test [12], 0.45; in test [13], 0.492. Besides, the “combination Emax” value in [14] was 0.419; in test [15], 0.468.

In the case of `CCc1c2c(nc3ccc(O)cc13)-c1cc3c(c(=O)n1C2)COC(=O)[C@]3(O)CC` [SN-38] + CN(C)CCCOc1ccc(-c2ccc3ncc4c(c3c2)n(C2CCOCC2)c(=O)n4C)cn1 [AZD0156] (first compound max 0.3 µM, 7x7, partner max 1 µM), the “combination Emax” value came to 0.473 in test [1]; 0.567 in the test with HuO-3N1 (Osteosarcoma); 0.952 with KYM-1 (Rhabdomyosarcoma); 1 in [2]; 0.592 in test [3]; 0.457 in test [4]. In addition, the “combination Emax” value in [5] was determined as 0.998; in the test with RT4 (Bladder Carcinoma), 0.819; in test [6] it was 0.664; in [7], 0.462; in test [8] it was 0.822; in test [9] it was 0.135. Besides, the “combination Emax” value in test [10] stood at 0.752; in the test on CHL-1 (Melanoma) it was 0.567; in test [11], 0.883; in the test with ES-2 (Ovarian Carcinoma) it was 0.912; in [12] it was 0.962; in [13], 0.855. Further, the figures for the “combination Emax” value in [14] and in [15] were 0.194 and 0.0732, respectively.
